Reference: patent US10947188B2, “Small molecule ferroptosis inducers” (THE TRUSTEES OF COLUMBIA UNIVERSITY IN THE CITY OF NEW YORK, priority 2016, dated 2021)

System: HT-1080
Assay: Modulatory profiling: Alamar Blue viability, lethal compound cotreated with death modulator (EC50, AUC)
Format: cell-based
Parameters: AUC, modulator HT.3MA / AUC, modulator HT.ALLN / AUC HT.ATA / AUC HT.ActD / AUC HT.BHA / AUC HT.BHT / AUC HT.BocD / AUC HT.CHX / AUC HT.Co2+ / AUC HT.DPQ / AUC HT.EGTA / AUC HT.Lmim / AUC HT.NAD+ / AUC HT.Nec-1 / AUC HT.SP600125 / AUC HT.TLCK / AUC HT.U0126: unit not given beside the values
Conditions: for AUC HT.ATA: HT-1080, modulator ATA; for AUC HT.ActD: HT-1080, modulator ActD; for AUC HT.BHA: HT-1080, modulator BHA; for AUC HT.BHT: HT-1080, modulator BHT; for AUC HT.BocD: HT-1080, modulator BocD; for AUC HT.CHX: HT-1080, modulator CHX; for AUC HT.Co2+: HT-1080, modulator Co2+; for AUC HT.CspA: HT-1080, modulator CspA; for AUC HT.DPQ: HT-1080, modulator DPQ; for AUC HT.EGTA: HT-1080, modulator EGTA; for AUC HT.Gd3+: HT-1080, modulator Gd3+; for AUC HT.LNAME: HT-1080, modulator LNAME; for AUC HT.Lmim: HT-1080, modulator Lmim; for AUC HT.NAD+: HT-1080, modulator NAD+; for AUC HT.NMMA: HT-1080, modulator NMMA; for HT.atoc (AUC) / HT.bCarotene (AUC) / HT.deferox (AUC) / HT.digoxin (AUC) / HT.trolox (AUC) / HT.zVAD (AUC) / EC50: HT-1080; for HT.atoc (AUC): modulator atoc; for HT.bCarotene (AUC): modulator bCarotene; for HT.deferox (AUC): modulator deferox; for HT.digoxin (AUC): modulator digoxin; for HT.trolox (AUC): modulator trolox; for HT.zVAD (AUC): modulator zVAD; for AUC, modulator HT.3MA / AUC, modulator HT.ALLN: HT-1080 cells, modulatory profile value (AUC); for AUC, modulator HT.3MA: lethal compound cotreated with modulator 3MA; for AUC, modulator HT.ALLN: lethal compound cotreated with modulator ALLN; for effect of ferroptosis inhibitors (iron chelators and lipophilic antioxidants) on lethality in modulatory profiling: HT-1080 and BJeLR; for EC50: Homo sapiens, HT-1080, 48 h, 48 h; for AUC HT.Nec-1: HT-1080, modulator Nec-1; for AUC HT.Pepstatin: HT-1080, modulator Pepstatin; for AUC HT.SP600125: HT-1080, modulator SP600125; for AUC HT.TLCK: HT-1080, modulator TLCK; for AUC HT.U0126: HT-1080, modulator U0126
[1] = cotreated with antioxidant Atoc
[2] = cotreated with antioxidant Trolox
[3] = cotreated with iron-chelator Deferoxamine
[4] = cotreated with iron-chelator Lmim

SMILES | AUC HT.ATA | AUC HT.ActD | AUC HT.BHA | AUC HT.BHT | AUC HT.BocD | AUC HT.CHX | AUC HT.Co2+ | AUC HT.CspA | AUC HT.DPQ | AUC HT.EGTA | AUC HT.Gd3+ | AUC HT.LNAME | AUC HT.Lmim | AUC HT.NAD+ | AUC HT.NMMA | HT.atoc (AUC) | HT.bCarotene (AUC) | HT.deferox (AUC) | HT.digoxin (AUC) | HT.trolox (AUC) | also measured
CCCCS(=O)(=O)/C=C\C=C/S(=O)(=O)CCCC [CIL49] | 0.04768 | −0.01874 | −0.01433 | −0.08297 | −0.0224 | −0.009484 | 0.008808 | 0.04471 | −0.02418 | 0.02252 | 0.000907 | 0.01289 | −0.03685 | −0.01413 | 0.000429 | 0.02137 | −0.02606 | 0.07453 | 0.001647 | −0.01523 | HT.zVAD (AUC): 0.009879; AUC, modulator HT.3MA: 0.05435; AUC, modulator HT.ALLN: 0.0662
N/C(=N\OC(=O)C12CC3CC(CC(C3)C1)C2)c1ccccc1 [CIL41] | 0.02643 | −0.09343 | 0.1312 | 0.009338 | −0.01678 | −0.05459 | 0.06389 | 9.4409E−05 | 0.04282 | 0.02946 | −0.02592 | −0.0121 | 0.1377 | −0.008657 | −0.01029 | 0.316 | −0.02182 | 0.1795 | −0.09255 | 0.161 | HT.zVAD (AUC): −0.0167; effect of ferroptosis inhibitors (iron chelators and lipophilic antioxidants) on lethality in modulatory profiling: suppression by canonical ferroptosis inhibitors; AUC, modulator HT.3MA: 0.04521; AUC, modulator HT.ALLN: 0.09324; EC50 (DMSO): 5.67 µM; EC50 (cotreated with MEK inh U0126): 20.9 µM; EC50 [1]: 50 µM; EC50 (cotreated with antioxidant BHA): 26 µM; EC50 (cotreated with antioxidant BHT): 12.6 µM; EC50 [2]: 23.4 µM; EC50 [3]: 124 µM; EC50 [4]: 69.8 µM
O=C(CCl)N(c1ccc(Cl)cc1)c1c[nH]c2ccccc12 [CIL75] | −0.01715 | 0.01892 | 0.3131 | 0.2828 | −0.01219 | 0.0402 | 0.1217 | −0.009674 | 0.01971 | −0.007018 | −0.02285 | −0.01737 | 0.2499 | −0.002594 | −0.02794 | 0.3816 | −0.01871 | 0.4009 | −0.037 | 0.3452 | HT.zVAD (AUC): 0.0001191; effect of ferroptosis inhibitors (iron chelators and lipophilic antioxidants) on lethality in modulatory profiling: suppression by canonical ferroptosis inhibitors; EC50 (DMSO): 0.144 µM; EC50 (cotreated with MEK inh U0126): 2.53 µM; EC50 [1]: 2.94 µM; EC50 (cotreated with antioxidant BHA): 2.75 µM; EC50 (cotreated with antioxidant BHT): 1.72 µM; EC50 [2]: 2.56 µM; EC50 [3]: 4.82 µM; EC50 [4]: 2.47 µM
COc1ccc(N(C(=O)CCl)C(C(=O)NCCc2ccccc2)c2cccs2)cc1 (centres unmarked) [DPI4] | −0.03622 | −0.006831 | 0.285 | 0.2486 | −0.01407 | −0.008699 | 0.1741 | 5.8801E−05 | 0.05528 | 0.0361 | −0.02121 | 0.01547 | 0.3086 | 0.02441 | −0.0007723 | 0.3523 | −0.01264 | 0.4095 | −0.06343 | 0.3151 | AUC HT.Nec-1: 0.05135; AUC HT.Pepstatin: −0.003295; AUC HT.SP600125: −0.04284; AUC HT.TLCK: 0.1761; AUC HT.U0126: 0.3423; HT.zVAD (AUC): −0.04451; AUC, modulator HT.3MA: −0.001458; AUC, modulator HT.ALLN: −0.1648
C[C@@H]1C[C@@H]([C@H](O)CC2CC(=O)NC(=O)C2)C(=O)[C@@H](C)C1 [cycloheximide, Cycloheximide, reference compound] | −0.01057 | 0.06057 | 0.06705 | −0.03297 | 0.0413 | 0.1462 | 0.09948 | 0.04639 | 0.01425 | 0.01386 | 0.002991 | 0.02188 | 0.1089 | 0.07007 | 0.01986 | 0.01667 | 0.008758 | 0.2041 | 0.0457 | 0.02127 | AUC HT.Nec-1: 0.03736; AUC HT.Pepstatin: 0.006163; AUC HT.SP600125: −0.003327; AUC HT.TLCK: 0.01836; AUC HT.U0126: 0.03848; HT.zVAD (AUC): 0.0358; AUC, modulator HT.3MA: 0.005512; AUC, modulator HT.ALLN: 0.3818
CC(C)[C@@H]1NC(=O)[C@H](C)OC(=O)[C@@H](C(C)C)NC(=O)[C@@H](C(C)C)OC(=O)[C@H](C(C)C)NC(=O)[C@H](C)OC(=O)[C@@H](C(C)C)NC(=O)[C@@H](C(C)C)OC(=O)[C@H](C(C)C)NC(=O)[C@H](C)OC(=O)[C@@H](C(C)C)NC(=O)[C@@H](C(C)C)OC1=O [Vatinomycin] | 0.04039 | 0.0779 | −0.01263 | −0.05233 | 0.01496 | 0.1024 | −0.06183 | −0.03789 | 0.1702 | −0.04483 | −0.004524 | −0.03843 | 0.1163 | 0.07833 | −0.002681 | 0.2292 | −0.01526 | 0.004145 | −0.1615 | 0.04463 | AUC HT.Nec-1: 0.08394; AUC HT.Pepstatin: 0.0197; AUC HT.SP600125: −0.161; AUC HT.TLCK: 0.02961; AUC HT.U0126: 0.005482; HT.zVAD (AUC): −0.05753; AUC, modulator HT.3MA: −0.1653; AUC, modulator HT.ALLN: 0.04228
COc1nn(-c2ccccc2)c(=O)c(Cl)c1Cl [CIL23] | 0.01792 | 0.01969 | 0.00702 | −0.02762 | −0.01259 | 0.08773 | 0.03316 | −0.02326 | 0.01052 | −0.01323 | −0.000221 | 0.005628 | 0.01608 | −0.0002222 | −0.001084 | 0.03663 | −0.001122 | 0.1512 | 0.03673 | 0.004402 | HT.zVAD (AUC): 0.02043; AUC, modulator HT.3MA: 0.01609; AUC, modulator HT.ALLN: 0.001521
CCCS(=O)(=O)c1nnnn1-c1cccc(OC)c1 [CIL15] | −0.002809 | 0.01242 | −0.03993 | −0.1489 | 0.1021 | 0.06342 | 0.1397 | −0.007032 | −0.02394 | −0.0006158 | −0.03881 | 0.001309 | −0.04837 | 0.01762 | −0.01943 | 0.1224 | −0.003906 | 0.04237 | −0.01238 | −0.02956 | HT.zVAD (AUC): −0.04682; AUC, modulator HT.3MA: 0.0263; AUC, modulator HT.ALLN: 0.0001245
CC1=CC(C)(C)Nc2ccc(OC(=O)c3cccnc3)cc21 [CIL47] | 0.07043 | 0.01588 | −0.04478 | −0.1469 | −0.009617 | 0.007874 | −0.2381 | 0.01761 | −0.02038 | 0.001051 | −0.02263 | −0.01288 | −0.04173 | −0.02784 | −0.01195 | 0.04666 | −0.001832 | 0.01074 | 0.03489 | −0.03828 | HT.zVAD (AUC): −0.005894; AUC, modulator HT.3MA: 0.07294; AUC, modulator HT.ALLN: 0.2227
CC1CC2=C(CC1CNCCCN(C)C)C(C)(C)CCC2 (centres unmarked) [CIL26] | 0.04192 | −0.002488 | −0.1441 | −0.1215 | 0.008992 | −0.02052 | −0.02744 | −0.04225 | 0.02987 | 0.009998 | −0.005334 | 0.001215 | −0.004 | −0.01406 | −0.009692 | 0.04649 | −0.03349 | −0.1033 | −0.03641 | −0.0327 | HT.zVAD (AUC): −0.01226; AUC, modulator HT.3MA: 0.0321; AUC, modulator HT.ALLN: 0.001592
COc1ccc(-n2nnnc2S(=O)(=O)CC(=O)N2CCCCC2)cc1 [CIL48] | 0.04684 | 0.01673 | −0.06966 | −0.1547 | −0.03823 | 0.0148 | 0.0307 | 0.002689 | −0.0003728 | 0.01715 | −0.003556 | −0.04087 | −0.01757 | −0.05465 | −0.01902 | 0.09021 | −0.00845 | 0.1268 | −0.01513 | −0.02612 | HT.zVAD (AUC): −0.005053; AUC, modulator HT.3MA: 0.0854; AUC, modulator HT.ALLN: 0.1611
